# What was measured:
# [1] = molecular target: T1, PDE4B1 (Homo sapiens, UniProt Q07343); experiment: Inhibition of PDE4 activity (PDE4B1, SPA assay); assay type: biochemical; conditions: recombinant PDE4B1, 0.5 μM cAMP; read-out: PDE4B1 Inhibitory values measured as -logIC50 (converted)
# T1 construct: made in house; host or cells: SF21 insect cells (baculovirus; virus made in SF9 cells, pCR-Bac vector)
# Protocol: Method for Measuring Inhibition of PDE4 Activity
# The PDE4B1 (GB no. L20966) was a gift of Prof. M. Conti (Stanford University, USA). It was amplified from the original plasmid (pCMV5) via PCR with primers Rb18 (5′-[…]-3′) and Rb10 (5′-[…]-3′) and cloned into the pCR-Bac vector (Invitrogen, Groningen, NL).
# The recombinant baculovirus was prepared by means of homologous recombination in SF9 insect cells. The expression plasmids were cotransfected with Baculo-Gold DNA (Pharmingen, Hamburg) using a standard protocol (Pharmingen, Hamburg). Wt virus-free recombinant virus supernatants were selected using plaque assay methods. After that, high-titre virus supernatants were prepared by amplifying 3 times. PDE4B1 was expressed in SF21 cells by infecting 2×10^6 cells/ml with an MOI (multiplicity of infection) between 1 and 10 in the serum-free SF900 medium (GIBCO Life Technologies, Karlsruhe, Germany) The cells were cultured at 28° C. for 48-72 hours, after which they were pelleted for 5-10 min at 1000×g and 4° C.
# The SF21 insect cells were resuspended, at a concentration of approx. 10^7 cells/ml, in ice-cold (4° C.) homogenization buffer (20 mM Tris, pH 8.2, containing the following additions: 140 mM NaCl, 3.8 mM KCl, 1 mM EGTA, 1 mM MgCl2, 10 mM β-mercaptoethanol, 2 mM benzamidine, 0.4 mM Pefablock, 10 μM leupeptin, 10 μM pepstatin A, 5 μM trypsin inhibitor) and disrupted by ultrasonication. The homogenate was then centrifuged for 10 min at 1000×g and the supernatant was stored at −80° C. until subsequent use (see below). The protein content was determined by the Bradford method (BioRad, Munich) using BSA (Bovine serum albumin) as the standard.
# PDE4B1 activities were measured in a 96-well platform using SPA (scintillation proximity assay) yttrium silicate beads (RPNQ1050 from GE Healthcare). In a first step the PDE activity operated hydrolysis of either [^3H] cAMP (substrate) into […]. In a second step substrate and product were distinguished following addition of SPA yttrium silicate beads. […] Close proximity of bound [^3H] […] The test volume was 100 μl and finally contained 20 mM Tris buffer (pH 7.4), 0.1 mg/ml of BSA, 5 mM Mg^2+, 0.5 μM cAMP (including about 50,000 cpm of [3H]cAMP) as substrate, 1 μl of the respective substance dilution in DMSO and sufficient recombinant PDE (1000×g supernatant, see above) to ensure that 10-20% of the cAMP was converted under the said experimental conditions. […] After a preincubation of 5 min at 37° C., the reaction was commenced by adding the substrate (cAMP) and the assays were incubated for a further 15 min. Reactions were terminated by adding SPA beads (50 μl). In agreement with the manufacturer's instructions, the SPA beads had previously been resuspended in water, but were then diluted 1:3 (v/v) in water. This diluted solution further contained 3 mM IBMX (isobutylmethylxanthine) to ensure a complete block of PDE activity. Once the beads were sedimented (>30 min), the MTP's (micro titerplate) were analyzed in commercially available […]. The corresponding IC50 values of the compounds for inhibition of PDE4B1 activity were determined from the concentration-effect curves by means of non-linear regression.
# (§1) The numbers of the compounds correspond to the numbers of the examples.
# [2] = molecular target: T2, human PDE5 (Homo sapiens, UniProt O76074); experiment: Inhibition of PDE5 activity (platelet lysate, SPA assay); assay type: biochemical; conditions: 0.5 μM cGMP, read-out: PDE5 Inhibitory values measured as -logIC50 (converted)
# T2 construct: from tissue; host or cells: human platelets from fresh donor blood (platelet lysate)
# Protocol: Method for Measuring Inhibition of PDE5 Activity
# As a source for human PDE5, platelets were used. For that purpose, 150 ml fresh blood from human donors anticoagulated with citrate [final concentration 0.3% (w/v)] was centrifuged at 200 g for 10 min to obtain the so-called platelet-rich-plasma (PRP) as a supernatant. […] After centrifugation (1,400 g, 10 min) the cell pellet was resuspended in 3 ml homogenization buffer (NaCl 140 mM, KCl 3.8 mM, EGTA (ethylene glycol tetraacetic acid) 1 mM, MgCl2 1 mM, Tris-HCl 20 mM, beta-mercaptoethanol 1 mM, pH 8.2) plus protease-inhibitor mix resulting in final concentrations of 0.5 mM Pefablock (Roche), 10 μM Leupeptin, 5 μM Trypsine inhibitor, 2 mM Benzamidin and 10 μM Pepstatin A. The suspension was sonicated and thereafter centrifuged for 15 min at 10,000 g. The resulting supernatant (platelet lysate) was used for enzymatic assays.
# PDE5 activities were measured in a 96-well platform using SPA (scintillation proximity assay) yttrium silicate beads (RPNQ1050 from GE Healthcare). In a first step the PDE activity operated hydrolysis of either [^3H] cGMP (substrate) into [^3H] 5′GMP. In a second step substrate and product were distinguished following addition of SPA yttrium silicate beads. Indeed, in the presence of zinc sulphate the linear [^3H] […] Close proximity of bound [^3H] […] The test volume was 100 μl and contained 20 mM Tris buffer (pH 7.4), 0.1 mg of BSA (bovine serum albumin)/ml, 5 mM Mg^2+, 1 μM motapizone (PDE3 Inhibitor), 10 nM PDE2 inhibitor 2-(3,4-dimethoxybenzyl)-7-[(1R,2R)-2-hydroxy-1-(2-phenylethyl)propyl]-5-methylimidazo[5,1-f][1,2,4]triazin-4(3H)-one, 0.5 μM cGMP (cyclic guanosine monophosphate) (including about 50,000 cpm of [3H]cGMP as a tracer) (substrate), 1 μl of the respective compound dilution in dimethylsulfoxide (DMSO) and sufficient PDE5-containing platelet lysat (10,000×g supernatant, see above) to ensure that 10-20% of the cGMP was converted under the said experimental conditions. […] After a preincubation of 5 min at 37° C., the reaction was commenced by adding the substrate (cGMP) and the assay was incubated for a further 15 min. The reaction was terminated by adding SPA beads (50 μl). In agreement with the manufacturer's instructions, the SPA beads had previously been resuspended in water, but were then diluted 1:3 (v/v) in water. This diluted solution also contained 3 mM 8-methoxymethyl-3-isobutyl-1-methylxanthine (IBMX) to ensure a complete block of PDE activity. Once the beads were sedimented (>30 min), the MTP's were analyzed in commercially available luminescence detection devices. The corresponding IC50 values of the compounds for inhibition of PDE activity were determined from the concentration-effect curves by means of non-linear regression.
# as §1
# T1 sequence (Q07343 whole entry): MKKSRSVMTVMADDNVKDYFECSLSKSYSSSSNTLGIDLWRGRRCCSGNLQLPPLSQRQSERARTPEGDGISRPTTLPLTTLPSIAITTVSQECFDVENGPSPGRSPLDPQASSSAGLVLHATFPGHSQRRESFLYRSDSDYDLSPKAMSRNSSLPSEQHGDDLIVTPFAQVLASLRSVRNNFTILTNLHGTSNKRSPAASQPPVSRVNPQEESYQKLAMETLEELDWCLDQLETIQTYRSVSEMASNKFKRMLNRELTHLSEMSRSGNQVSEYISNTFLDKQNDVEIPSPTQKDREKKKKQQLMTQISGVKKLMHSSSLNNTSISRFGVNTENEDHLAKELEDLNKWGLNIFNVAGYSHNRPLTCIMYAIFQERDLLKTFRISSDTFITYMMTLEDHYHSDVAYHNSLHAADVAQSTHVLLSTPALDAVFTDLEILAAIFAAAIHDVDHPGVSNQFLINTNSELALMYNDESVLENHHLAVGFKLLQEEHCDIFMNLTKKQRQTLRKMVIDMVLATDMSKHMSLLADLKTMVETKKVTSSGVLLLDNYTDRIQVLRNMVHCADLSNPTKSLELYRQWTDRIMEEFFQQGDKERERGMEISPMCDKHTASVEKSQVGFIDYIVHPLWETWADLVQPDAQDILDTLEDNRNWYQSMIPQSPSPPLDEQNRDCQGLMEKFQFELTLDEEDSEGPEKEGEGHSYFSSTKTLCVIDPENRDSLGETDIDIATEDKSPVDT
smiles,measurement,setting,value
"COc1ccc(C2=NN(C3CCN(C(=O)[C@@H](Cc4ccncc4)NC(=O)c4c[nH]c5c(-c6c(OCC7CC7)ccc7c6OCO7)ncnc45)CC3)C(=O)[C@@H]3CCCC[C@H]23)cc1OC [Example 109, 4-[5-(cyclopropylmethoxy)-1,3-benzodioxol-4-yl]-N-[(2R)-1-{4-[(4aS,8aR)-4-(3,4-dimethoxyphenyl)-1-oxo-4a,5,6,7,8,8a-hexahydrophthalazin-2(1H)-yl]piperidin-1-yl}-1-oxo-3-(pyridin-4-yl)propan-2-yl]-5H-pyrrolo[3,2-d]pyrimidine-7-carboxamide]",IC50,[1],< 1 nM
same,IC50,[2],< 1 nM
COc1ccc(C2=NN(C3CCN(C(=O)[C@@H](Cc4ccccc4)NC(=O)c4c[nH]c5c(-c6c(OCC7CC7)ccc7c6OCO7)ncnc45)CC3)C(=O)C(C)(C)C2)c2c1OC(C)(C)C2 [Example 115],IC50,[1],< 1 nM
same,IC50,[2],1 to 10 nM
"COc1ccc(C2=NN(C3CCN(C(=O)C[C@@H](Cc4ccccc4)NC(=O)c4c[nH]c5c(-c6c(OCC7CC7)ccc7c6OCO7)ncnc45)CC3)C(=O)[C@@H]3CCCC[C@H]23)cc1OC [Example 77, 4-[5-(cyclopropylmethoxy)-1,3-benzodioxol-4-yl]-N-[(2R)-4-{4-[(4aS,8aR)-4-(3,4-dimethoxyphenyl)-1-oxo-4a,5,6,7,8,8a-hexahydrophthalazin-2(1H)-yl]piperidin-1-yl}-4-oxo-1-phenylbutan-2-yl]-5H-pyrrolo[3,2-d]pyrimidine-7-carboxamide]",IC50,[1],1 to 10 nM
same,IC50,[2],1 to 10 nM
"COc1ccc(C[C@H](NC(=O)c2c[nH]c3c(-c4c(OCC5CC5)ccc5c4OCO5)ncnc23)C(=O)N2CCC(N3N=C(c4ccc(OC)c(OC)c4)[C@H]4CCCC[C@H]4C3=O)CC2)cc1OC [Example 25, 4-[5-(cyclopropylmethoxy)-1,3-benzodioxol-4-yl]-N-[(2S)-3-(3,4-dimethoxyphenyl)-1-{4-[(4aS,8aR)-4-(3,4-dimethoxyphenyl)-1-oxo-4a,5,6,7,8,8a-hexahydrophthalazin-2(1H)-yl]piperidin-1-yl}-1-oxopropan-2-yl]-5H-pyrrolo[3,2-d]pyrimidine-7-carboxamide]",IC50,[1],1 to 10 nM
same,IC50,[2],1 to 10 nM
"COc1ccc(C2=NN(C3CCN(C(=O)[C@H](NC(=O)c4c[nH]c5c(-c6c(OCC7CC7)ccc7c6OCO7)ncnc45)C4CCCCC4)CC3)C(=O)[C@@H]3CCCC[C@H]23)cc1OC [Example 72, N-[(1R)-1-cyclohexyl-2-{4-[(4aS,8aR)-4-(3,4-dimethoxyphenyl)-1-oxo-4a,5,6,7,8,8a-hexahydrophthalazin-2(1H)-yl]piperidin-1-yl}-2-oxoethyl]-4-[5-(cyclopropylmethoxy)-1,3-benzodioxol-4-yl]-5H-pyrrolo[3,2-d]pyrimidine-7-carboxamide]",IC50,[1],< 1 nM
same,IC50,[2],1 to 10 nM
"COc1ccc(C2=NN(C3CCN(C(=O)[C@H](NC(=O)c4c[nH]c5c(-c6c(OCC7CC7)ccc7c6OCO7)ncnc45)C(C)C)CC3)C(=O)[C@@H]3CCCC[C@H]23)cc1OC [Example 119, 4-[5-(cyclopropylmethoxy)-1,3-benzodioxol-4-yl]-N-[(2R)-1-{4-[(4aS,8aR)-4-(3,4-dimethoxyphenyl)-1-oxo-4a,5,6,7,8,8a-hexahydrophthalazin-2(1H)-yl]piperidin-1-yl}-3-methyl-1-oxobutan-2-yl]-5H-pyrrolo[3,2-d]pyrimidine-7-carboxamide]",IC50,[1],< 1 nM
same,IC50,[2],< 1 nM
"COc1ccc(C2=NN(C3CCN(C(=O)[C@H](Cc4cccc(C)c4)NC(=O)c4c[nH]c5c(-c6c(OCC7CC7)ccc7c6OCO7)ncnc45)CC3)C(=O)[C@@H]3CCCC[C@H]23)cc1OC [Example 3, 4-[5-(cyclopropylmethoxy)-1,3-benzodioxol-4-yl]-N-[(2S)-1-{4-[(4aS,8aR)-4-(3,4-dimethoxyphenyl)-1-oxo-4a,5,6,7,8,8a-hexahydrophthalazin-2(1H)-yl]piperidin-1-yl}-3-(3-methylphenyl)-1-oxopropan-2-yl]-5H-pyrrolo[3,2-d]pyrimidine-7-carboxamide]",IC50,[1],< 1 nM
same,IC50,[2],1 to 10 nM
"COc1ccc(C2=NN(C3CCN(C(=O)[C@H](Cc4ccccc4)NC(=O)c4c[nH]c5c(-c6c(OCC7CC7)ccc7c6OCO7)ncnc45)CC3)C(=O)C(C)(C)C2)cc1OC [Example 110, 4-[5-(cyclopropylmethoxy)-1,3-benzodioxol-4-yl]-N-[(2S)-1-{4-[3-(3,4-dimethoxyphenyl)-5,5-dimethyl-6-oxo-5,6-dihydropyridazin-1(4H)-yl]piperidin-1-yl}-1-oxo-3-phenylpropan-2-yl]-5H-pyrrolo[3,2-d]pyrimidine-7-carboxamide]",IC50,[1],1 to 10 nM
same,IC50,[2],1 to 10 nM
"COc1ccc(C2=NN(C3CCN(C(=O)[C@H](CCC(=O)N4CCCCC4)NC(=O)c4c[nH]c5c(-c6c(OCC7CC7)ccc7c6OCO7)ncnc45)CC3)C(=O)[C@@H]3CCCC[C@H]23)cc1OC [Example 79, 4-[5-(cyclopropylmethoxy)-1,3-benzodioxol-4-yl]-N-[(2S)-1-{4-[(4aS,8aR)-4-(3,4-dimethoxyphenyl)-1-oxo-4a,5,6,7,8,8a-hexahydrophthalazin-2(1H)-yl]piperidin-1-yl}-1,5-dioxo-5-(piperidin-1-yl)pentan-2-yl]-5H-pyrrolo[3,2-d]pyrimidine-7-carboxamide]",IC50,[1],1 to 10 nM
same,IC50,[2],1 to 10 nM

# — patent US20160108049A1 (TAKEDA Gmbh, priority 2011, published 2016)
